# Laboratory results as given in US11208421B2, “2-carboxypenam compound or salt thereof, pharmaceutical composition containing novel 2-carboxypenam compound or salt thereof, and applications thereof” (priority 2017, dated 2021).
# Tests used:
# Assay type in all cases: cell-based
# [1] = test system: Pseudomonas aeruginosa strain ATCC 27853; experiment: Antibacterial activity evaluation test (MIC), broth microdilution, strain ATCC 27853; conditions: for MIC: Pseudomonas aeruginosa, ATCC27853, read-out: MIC Pseudomonas aeruginosa strain ATCC 27853; for MIC Pseudomonas aeruginosa strain ATCC 27853: cation-adjusted Mueller-Hinton medium supplemented with 20 M of apotransferrin, 35° C., 16 to 20 hours
# Procedure: (§1) The minimum inhibitory concentration (MIC) was measured according to the Clinical and Laboratory Standards Institute (CLSI) standard method by using the following broth microdilution method.
# (§2) As bacteria, a Pseudomonas aeruginosa strain ATCC 27853, a Pseudomonas aeruginosa AmpC derepression mutant strain S-3028, and a Pseudomonas aeruginosa IMP-1-producing strain S-2838 were used.
# (§3) The Pseudomonas aeruginosa AmpC-derepression mutant strain S-3028 or the Pseudomonas aeruginosa IMP-1-producing strain S-2838 was cultured on a Mueller Hinton agar medium overnight, thereby preparing test bacterial cells. The obtained test bacterial cells were scraped off, suspended to yield 0.5 McFarland equivalence, and diluted 10-fold to obtain an inoculum. A cation-adjusted Mueller Hinton medium containing a test compound was inoculated with 0.0005 mL of the inoculum, and the cells were cultured at 35° C. for 16 to 20 hours. The minimum drug concentration at which the growth of bacteria was not visually observed was defined as MIC.
# The MIC of the Pseudomonas aeruginosa ATCC strain 27853 was measured in the same manner as described above by using a cation-adjusted Mueller-Hinton medium supplemented with […] of apotransferrin as a final concentration.
# [2] = test system: Pseudomonas aeruginosa AmpC derepression mutant strain S-3028; experiment: Antibacterial activity evaluation test (MIC), broth microdilution, AmpC derepression mutant strain S-3028; conditions: for MIC: Pseudomonas aeruginosa, read-out: MIC Pseudomonas aeruginosa strain S-3028; for MIC Pseudomonas aeruginosa strain S-3028: AmpC derepression mutant, cation-adjusted Mueller Hinton medium, 35° C., 16 to 20 hours
# Procedure: as §1, §2, §3
# [3] = test system: Pseudomonas aeruginosa IMP-1-producing strain S-2838; experiment: Antibacterial activity evaluation test (MIC), broth microdilution, IMP-1-producing strain S-2838; conditions: for MIC: Pseudomonas aeruginosa, read-out: MIC Pseudomonas aeruginosa strain S-2838; for MIC Pseudomonas aeruginosa strain S-2838: IMP-1-producing strain, cation-adjusted Mueller Hinton medium, 35° C., 16 to 20 hours
# Procedure: as §1, §2, §3
Structure (SMILES),MIC [1],MIC [2],MIC [3],MIC Pseudomonas aeruginosa strain ATCC 27853 [1],MIC Pseudomonas aeruginosa strain S-3028 [2],MIC Pseudomonas aeruginosa strain S-2838 [3]
"CN/N=C(\C(=O)NCCS[C@]1(C(=O)O)CN2C(=O)[C@@H](NC(=O)/C(=N\OC(C)(C)C(=O)O)c3csc(N)n3)[C@H]2S1)c1ccc(O)c(O)c1Cl [Example 8, (3R,5R,6R)-6-((Z)-2-(2-aminothiazol-4-yl)-2-(((2-carboxypropan-2-yl)oxy)imino)acetamide)-3-((2-((Z)-2-(2-chloro-3,4-dihydroxyphenyl)-2-(2-methylhydrazono)acetamide)ethyl)thio)-7-oxo-4-thia-1-azabicyclo[3.2.0]heptane-3-carboxylic acid]",≤ 0.0625 µg/mL,2 µg/mL,0.25 µg/mL,,,
"CC(C)(O/N=C(\C(=O)N[C@@H]1C(=O)N2C[C@](SCCNC(=O)/C(=N\NC(N)=O)c3ccc(O)c(O)c3)(C(=O)O)S[C@H]12)c1csc(N)n1)C(=O)O [Example 14, (3R,5R,6R)-6-((Z)-2-(2-aminothiazol-4-yl)-2-(((2-carboxypropane-2-yl)oxy)imino)acetamide)-3-((2-(2-(2-carbamoylhydrazono)-2-(3,4-dihydroxyphenyl)acetamide)ethyl)thio)-7-oxo-4-thia-1-azabicyclo[3.2.0]heptane-3-carboxylic acid]",0.25 µg/mL,32 µg/mL,1 µg/mL,,,
"COC[C@H](CS[C@]1(C(=O)O)CN2C(=O)[C@@H](NC(=O)/C(=N\OC(C)(C)C(=O)O)c3csc(N)n3)[C@H]2S1)NC(=O)C(=O)c1ccc(O)c(O)c1Cl [Example 3, (3R,5R,6R)-6-((Z)-2-(2-aminothiazol-4-yl)-2-(((2-carboxypropan-2-yl)oxy)imino)acetamide)-3-(((R)-2-(2-(2-chloro-3,4-dihydroxyphenyl)-2-oxoacetamide)-3-methoxypropyl)thio)-7-oxo-4-thia-1-azabicyclo[3.2.0]heptane-3-carboxylic acid]",,,,≤0.0625 µg/mL,0.5 µg/mL,1 µg/mL
"CC(C)(O/N=C(\C(=O)N[C@@H]1C(=O)N2C[C@](SCCNC(=O)C(=O)c3ccc(O)c(O)c3)(C(=O)O)S[C@H]12)c1csc(N)n1)C(=O)O [Example 7, (3R,5R,6R)-6-((Z)-2-(2-aminothiazol-4-yl)-2-(((2-carboxypropane-2-yl)oxy)imino)acetamide)-3-((2-(2-(3,4-dihydroxyphenyl)-2-oxoacetamide)ethyl)thio)-7-oxo-4-thia-1-azabicyclo[3.2.0]heptane-3-carboxylic acid]",,,,0.125 µg/mL,16 µg/mL,4 µg/mL
"CC(C)(O/N=C(\C(=O)N[C@@H]1C(=O)N2C[C@](SCCNC(=O)/C(=N/N3CCOCC3)c3ccc(O)c(O)c3Cl)(C(=O)O)S[C@H]12)c1csc(N)n1)C(=O)O [Example 10, (3R,5R,6R)-6-((Z)-2-(2-aminothiazole-4-yl)-2-(((2-carboxypropan-2-yl)oxy)imino)acetamide)-3-((2-((E)-2-(2-chloro-3,4-dihydroxyphenyl)-2-(morpholinoimino)acetamide)ethyl)thio)-7-oxo-4-thia-1-azabicyclo[3.2.0]heptane-3-carboxylic acid]",1 µg/mL,> 128 µg/mL,32 µg/mL,,,
"CC(C)(O/N=C(\C(=O)N[C@@H]1C(=O)N2C[C@](SC3CN(C(=O)C(=O)c4ccc(O)c(O)c4Cl)C3)(C(=O)O)S[C@H]12)c1csc(N)n1)C(=O)O [Example 2, (3R,5R,6R)-6-((Z)-2-(2-aminothiazol-4-yl)-2-(((2-carboxypropan-2-yl)oxy)imino)acetamide)-3-((1-(2-(2-chloro-3,4-dihydroxyphenyl)-2-oxoacetyl)azetidin-3-yl)thio)-7-oxo-4-thia-1-azabicyclo[3.2.0]heptane-3-carboxylic acid]",,,,≤0.0625 µg/mL,4 µg/mL,16 µg/mL
"CO[C@@H](CNC(=O)/C(=N/NC(N)=O)c1ccc(O)c(O)c1Cl)CS[C@]1(C(=O)O)CN2C(=O)[C@@H](NC(=O)/C(=N\OC(C)(C)C(=O)O)c3csc(N)n3)[C@H]2S1 [Example 16, (3R,5R,6R)-6-((Z)-2-(2-aminothiazole-4-yl)-2-(((2-carboxypropan-2-yl)oxy)imino)acetamide)-3-(((S)-3-((E)-2-(2-carbamoylhydrazono)-2-(2-chloro-3,4-dihydroxyphenyl)acetamide)-2-methoxypropyl)thio)-7-oxo-4-thia-1-azabicyclo[3.2.0]heptane-3-carboxylic acid]",0.5 µg/mL,16 µg/mL,8 µg/mL,,,
"COC[C@H](CS[C@]1(C(=O)O)CN2C(=O)[C@@H](NC(=O)/C(=N\OC(C)(C)C(=O)O)c3csc(N)n3)[C@H]2S1)NC(=O)/C(=N\NC(N)=O)c1ccc(O)c(O)c1Cl [Example 17, (3R,5R,6R)-6-((Z)-2-(2-aminothiazol-4-yl)-2-(((2-carboxypropane-2-yl)oxy)imino)acetamide)-3-(((R)-2-(2-(2-carbamoylhydrazono)-2-(2-chloro-3,4-dihydroxyphenyl)acetamide)-3-methoxypropyl)thio)-7-oxo-4-thia-1-azabicyclo[3.2.0]heptane-3-carboxylic acid]",≤ 0.0625 µg/mL,8 µg/mL,8 µg/mL,,,
"CC(C)(O/N=C(\C(=O)N[C@@H]1C(=O)N2C[C@](SC[C@H]3COCCN3C(=O)c3ccc(O)c(O)c3Cl)(C(=O)O)SC12)c1csc(N)n1)C(=O)O (stereo partly drawn) [Example 20, (3R,5R,6R)-6-((Z)-2-(2-aminothiazol-4-yl)-2-(((2-carboxypropan-2-yl)oxy)imino)acetamide)-3-((((R)-4-(2-chloro-3,4-dihydroxybenzoyl)morpholin-3-yl)methyl)thio)-7-oxo-4-thia-1-azabicyclo[3.2.0]heptane-3-carboxylic acid]",0.5 µg/mL,4 µg/mL,4 µg/mL,,,
"CC(C)(O/N=C(\C(=O)N[C@@H]1C(=O)N2C[C@](SCCNC(=O)/C(=N\N)c3ccc(O)c(O)c3Cl)(C(=O)O)S[C@H]12)c1csc(N)n1)C(=O)O [Example 26, (3R,5R,6R)-6-((Z)-2-(2-aminothiazol-4-yl)-2-(((2-carboxypropan-2-yl)oxy)imino)acetamide)-3-((2-((Z)-2-(2-chloro-3,4-dihydroxyphenyl)-2-hydrazinylideneacetamide)ethyl)thio)-7-oxo-4-thia-1-azabicyclo[3.2.0]heptane-3-carboxylic acid]",,,,0.5 µg/mL,8 µg/mL,1 µg/mL
"CC(C)(O/N=C(\C(=O)N[C@@H]1C(=O)N2C[C@](SCCNC(=O)/C(=N/NC(N)=O)c3ccc(O)c(O)c3Cl)(C(=O)O)S[C@H]12)c1csc(N)n1)C(=O)O [Example 13, (3R,5R,6R)-6-((Z)-2-(2-aminothiazole-4-yl)-2-(((2-carboxypropan-2-yl)oxy)imino)acetamide)-3-((2-((E)-2-(2-carbamoylhydrazono)-2-(2-chloro-3,4-dihydroxyphenyl)acetamide)ethyl)thio)-7-oxo-4-thia-1-azabicyclo[3.2.0]heptane-3-carboxylic acid]",≤ 0.0625 µg/mL,16 µg/mL,8 µg/mL,,,
CC(C)(O/N=C(\C(=O)N[C@@H]1C(=O)N2C[C@](SCCNC(=O)/C(=N\NC(N)=O)c3ccc(O)c(O)c3Cl)(C(=O)O)S[C@H]12)c1csc(N)n1)C(=O)O [Example 12],≤ 0.0625 µg/mL,16 µg/mL,4 µg/mL,,,
"CC(C)(O/N=C(\C(=O)N[C@@H]1C(=O)N2C[C@](SCCNC(=O)c3ccc(O)c(O)c3Cl)(C(=O)O)SC12)c1csc(N)n1)C(=O)O (stereo partly drawn) [Example 18, (3R,5R,6R)-6-((Z)-2-(2-aminothiazol-4-yl)-2-(((2-carboxypropan-2-yl)oxy)imino)acetamide)-3-((2-(2-chloro-3,4-dihydroxybenzamide)ethyl)thio)-7-oxo-4-thia-1-azabicyclo[3.2.0]heptane-3-carboxylic acid]",0.125 µg/mL,2 µg/mL,4 µg/mL,,,
"CC(C)(O/N=C(\C(=O)N[C@@H]1C(=O)N2C[C@](SCCNNC(=O)c3ccc(O)c(O)c3Cl)(C(=O)O)S[C@H]12)c1csc(N)n1)C(=O)O [Example 28, (3R,5R,6R)-6-((Z)-2-(2-aminothiazol-4-yl)-2-(((2-carboxypropan-2-yl)oxy)imino)acetamide)-3-((2-(2-(2-chloro-3,4-dihydroxybenzoyl)hydradienyl)ethyl)thio)-7-oxo-4-thia-1-azabicyclo[3.2.0]heptane-3-carboxylic acid]",,,,1 µg/mL,1 µg/mL,1 µg/mL
"CC(C)(O/N=C(\C(=O)N[C@@H]1C(=O)N2C[C@](SC3CN(C(=O)/C(=N\O)c4ccc(O)c(O)c4Cl)C3)(C(=O)O)SC12)c1csc(N)n1)C(=O)O (stereo partly drawn) [Example 5, (3R,5R,6R)-6-((Z)-2-(2-aminothiazol-4-yl)-2-(((2-carboxypropan-2-yl)oxy)imino)acetamide)-3-((1-((Z)-2-(2-chloro-3,4-dihydroxyphenyl)-2-(hydroxyimino)acetyl)azetidin-3-yl)thio)-7-oxo-4-thia-1-azabicyclo[3.2.0]heptane-3-carboxylic acid]",≤ 0.0625 µg/mL,8 µg/mL,16 µg/mL,,,
